Laboratory results taken from patent publication US5099015A, “Trifluoromethyl 1-carba(1-dethia)cephems” (Eli Lilly and Company, priority 1991, dated 1992).
In brackets after ≈: the same amount, converted by molar mass. Where two headings read alike, the source gives them in different places.

How the values were obtained:
Test in all cases: Agar dilution antibacterial test (MIC)
Assay type in all cases: cell-based
Acom AC12 = test system: Acom AC12
Procedure: (§1) Fresh overnight cultures of test bacteria were diluted to approximately 1x(10)4 cells/microliter and applied in one microliter volumes to the surfaces of the agar plates. The innoculated plates were incubated overnight at 35° C. in ambient air. Minimum inhibitory concentration (mic) endpoints were recorded as the lowest antibiotic concentrations in micrograms per milliliter that inhibited the development of visible growth on the plates. The following summarizes the results of such tests with the compounds of the examples listed above.

Citro CF17 = test system: Citro CF17
Procedure: as §1

[1] = test system: Enterobacter aerogenes C32
Procedure: as §1

[2] = test system: Enterobacter aerogenes EB17
Procedure: as §1

[3] = test system: Enterobacter cloacae 265A
Procedure: as §1

Enterobacter cloacae EB5 = test system: Enterobacter cloacae EB5
Procedure: as §1

[4] = test system: Enterococcus faecalis 2041
Procedure: as §1

Enterococcus faecium X66 = test system: Enterococcus faecium X66
Procedure: as §1

Escherichia coli EC14 = test system: Escherichia coli EC14
Procedure: as §1

Escherichia coli N10 = test system: Escherichia coli N10
Procedure: as §1

Escherichia coli TEM = test system: Escherichia coli TEM
Procedure: as §1

[5] = test system: Haemophilus influenzae 76
Procedure: as §1

[6] = test system: Haemophilus influenzae C.L.
Procedure: as §1

[7] = test system: Klebsiella pneumoniae KAE
Procedure: as §1

[8] = test system: Klebsiella pneumoniae X26
Procedure: as §1

[9] = test system: Klebsiella pneumoniae X68
Procedure: as §1

Morg morg PR15 = test system: Morg morg PR15
Procedure: as §1

Proteus incon PR33 = test system: Proteus incon PR33
Procedure: as §1

Proteus rett C24 = settings: Proteus rett C24
Procedure: as §1

Salmonella 1335 = test system: Salmonella 1335
Procedure: as §1

Salmonella X514 = test system: Salmonella X514
Procedure: as §1

Serratia SE3 = test system: Serratia SE3
Procedure: as §1

Serratia X99 = test system: Serratia X99
Procedure: as §1

[10] = test system: Staphylococcus aureus NRRL X1.1
Procedure: as §1

[11] = test system: Staphylococcus aureus S13E
Procedure: as §1

[12] = test system: Staphylococcus aureus V41
Procedure: as §1

[13] = test system: Staphylococcus aureus X400
Procedure: as §1

[14] = test system: Staphylococcus epidermidis 222
Procedure: as §1

[15] = test system: Staphylococcus epidermidis EPI270
Procedure: as §1

[16] = test system: Staphylococcus pneumoniae Park 1
Procedure: as §1

[17] = test system: Staphylococcus pyogenes C203
Procedure: as §1

Shig sonn. N9 = settings: read-out: MIC
Procedure: as §1

[18] = Klebsiella aerogenes, read-out: MIC

Structure (SMILES): NC(C(=O)N[C@@H]1C(=O)N2C(C(=O)O)=C(C(F)(F)F)CC[C@H]12)c1cccc(C(F)(F)F)c1 (stereo partly drawn) [Compound 9, [6R,7S]-7-β-[D-α-(amino)-3-trifluoromethylphenylacetylamino]-3-trifluoromethyl-1-carba-1-carba-1-dethia3-cephem-4-carboxylic acid]
- MIC (Acom AC12): 32 µg/mL (≈ 70.9 µM)
- MIC (Citro CF17): 128 µg/mL (≈ 284 µM)
- MIC [1]: 128 µg/mL (≈ 284 µM)
- MIC [2]: 128 µg/mL (≈ 284 µM)
- MIC [3]: 128 µg/mL (≈ 284 µM)
- MIC (Enterobacter cloacae EB5): 4 µg/mL (≈ 8.86 µM)
- MIC [4]: 16 µg/mL (≈ 35.5 µM)
- MIC (Enterococcus faecium X66): 32 µg/mL (≈ 70.9 µM)
- MIC (Escherichia coli EC14): 8 µg/mL (≈ 17.7 µM)
- MIC (Escherichia coli N10): 32 µg/mL (≈ 70.9 µM)
- MIC (Escherichia coli TEM): 16 µg/mL (≈ 35.5 µM)
- MIC [5]: 1 µg/mL (≈ 2.22 µM)
- MIC [6]: 1 µg/mL (≈ 2.22 µM)
- MIC [7]: 64 µg/mL (≈ 142 µM)
- MIC [8]: 1 µg/mL (≈ 2.22 µM)
- MIC [9]: 16 µg/mL (≈ 35.5 µM)
- MIC (Morg morg PR15): 32 µg/mL (≈ 70.9 µM)
- MIC (Proteus incon PR33): 32 µg/mL (≈ 70.9 µM)
- MIC (Proteus rett C24): 64 µg/mL (≈ 142 µM)
- MIC (Salmonella 1335): 64 µg/mL (≈ 142 µM)
- MIC (Salmonella X514): 32 µg/mL (≈ 70.9 µM)
- MIC (Serratia SE3): > 128 µg/mL
- MIC (Serratia X99): 128 µg/mL (≈ 284 µM)
- MIC [10]: 2 µg/mL (≈ 4.43 µM)
- MIC [11]: 16 µg/mL (≈ 35.5 µM)
- MIC [12]: 4 µg/mL (≈ 8.86 µM)
- MIC [13]: 16 µg/mL (≈ 35.5 µM)
- MIC [14]: 1 µg/mL (≈ 2.22 µM)
- MIC [15]: 4 µg/mL (≈ 8.86 µM)
- MIC [16]: .125 µg/mL (≈ 0.277 µM)
- MIC [17]: 6 µg/mL (≈ 13.3 µM)

Structure (SMILES): N[C@@H](C(=O)N[C@@H]1C(=O)N2C(C(=O)O)=C(C(F)(F)F)CC[C@H]12)c1ccccc1 [Compound 1, 7β-[D-α-(amino)phenylacetylamino]-3-trifluoromethyl-1-carba-(1-dethia)-3-cephem-4-carboxyl ic acid]
- MIC (Citro CF17; read-out: MIC): 8 µg/mL (≈ 20.9 µM)
- MIC [1, 18]: 4 µg/mL (≈ 10.4 µM)
- MIC [2, 18]: 4 µg/mL (≈ 10.4 µM)
- MIC ([3]; read-out: MIC): 16 µg/mL (≈ 41.7 µM)
- MIC (Enterobacter cloacae EB5; read-out: MIC): 8 µg/mL (≈ 20.9 µM)
- MIC ([4]; read-out: MIC): 16 µg/mL (≈ 41.7 µM)
- MIC (Enterococcus faecium X66; read-out: MIC): 32 µg/mL (≈ 83.5 µM)
- MIC (Escherichia coli EC14; read-out: MIC): 0.5 µg/mL (≈ 1.3 µM)
- MIC (Escherichia coli N10; read-out: MIC): 2 µg/mL (≈ 5.22 µM)
- MIC (Escherichia coli TEM; read-out: MIC): 0.5 µg/mL (≈ 1.3 µM)
- MIC ([5]; read-out: MIC): 1 µg/mL (≈ 2.61 µM)
- MIC ([6]; read-out: MIC): 0.5 µg/mL (≈ 1.3 µM)
- MIC ([7]; read-out: MIC): 8 µg/mL (≈ 20.9 µM)
- MIC ([8]; read-out: MIC): 0.25 µg/mL (≈ 0.652 µM)
- MIC ([9]; read-out: MIC): 0.5 µg/mL (≈ 1.3 µM)
- MIC (Morg morg PR15; read-out: MIC): 32 µg/mL (≈ 83.5 µM)
- MIC (Proteus incon PR33; read-out: MIC): 16 µg/mL (≈ 41.7 µM)
- MIC (Proteus rett C24; read-out: MIC): 8 µg/mL (≈ 20.9 µM)
- MIC (Salmonella 1335; read-out: MIC): 1 µg/mL (≈ 2.61 µM)
- MIC (Salmonella X514; read-out: MIC): 0.25 µg/mL (≈ 0.652 µM)
- MIC (Serratia SE3; read-out: MIC): 32 µg/mL (≈ 83.5 µM)
- MIC (Serratia X99; read-out: MIC): 8 µg/mL (≈ 20.9 µM)
- MIC (Shig sonn. N9): 1 µg/mL (≈ 2.61 µM)
- MIC ([10]; NRRLX1.1, read-out: MIC): 2 µg/mL (≈ 5.22 µM)
- MIC [11]: 32 µg/mL (≈ 83.5 µM)
- MIC ([12]; read-out: MIC): 16 µg/mL (≈ 41.7 µM)
- MIC ([13]; read-out: MIC): 64 µg/mL (≈ 167 µM)
- MIC ([14]; read-out: MIC): 4 µg/mL (≈ 10.4 µM)
- MIC ([15]; read-out: MIC): 4 µg/mL (≈ 10.4 µM)
- MIC ([16]; PARK1, read-out: MIC): 0.125 µg/mL (≈ 0.326 µM)
- MIC ([17]; read-out: MIC): 0.06 µg/mL (≈ 0.157 µM)
